ChEMBL document CHEMBL3091280, “Synthesis and Cytotoxicity of Semisynthetic Withalongolide A Analogues” (ACS Med Chem Lett, 2013)

Tests used:
[1] = Cytotoxicity against human JMAR cells after 72 hrs by MTS assay; type: functional, cell-based
MRC5 = experiment: Cytotoxicity against human MRC5 cells after 72 hrs by MTS assay; type: cell-based; settings: MRC5, 72 h
MDA-MB-231 = experiment: Cytotoxicity against human MDA-MB-231 cells after 72 hrs by MTS assay; type: functional, cell-based; settings: MDA-MB-231, 72 h
[2] = Cytotoxicity against human DRO 81-1 cells after 72 hrs by MTS assay; type: functional, cell-based
SK-MEL-28 = experiment: Cytotoxicity against human SK-MEL-28 cells after 72 hrs by MTS assay; type: functional, cell-based; settings: SK-MEL-28, 72 h

| SMILES | IC50 [1] | IC50 (MRC5) | IC50 (MDA-MB-231) | IC50 [2] | IC50 (SK-MEL-28) |
| --- | --- | --- | --- | --- | --- |
| CC1=C(CO)C(=O)O[C@@H]([C@@H](C)[C@H]2CC[C@H]3[C@@H]4C[C@H]5O[C@]56[C@@H](O)C=CC(=O)[C@]6(CO)[C@H]4CC[C@]23C)C1 | 3100 nM | 5300 nM | 1500 nM | 1700 nM | 1600 nM |
| CC(=O)OCC1=C(C)C[C@H]([C@@H](C)[C@H]2CC[C@H]3[C@@H]4C[C@H]5O[C@]56[C@@H](OC(C)=O)C=CC(=O)[C@]6(COC(C)=O)[C@H]4CC[C@]23C)OC1=O | 655 nM | 310 nM | 655 nM | 110 nM | 110 nM |
| CC(=O)OCC1=C(C)C[C@H]([C@@H](C)[C@H]2CC[C@H]3[C@@H]4C[C@H]5O[C@]56[C@@H](OC(C)=O)C=CC(=O)[C@]6(CO)[C@H]4CC[C@]23C)OC1=O | 600 nM | 295 nM | 635 nM | 58 nM | 170 nM |
| CC(=O)OC[C@]12C(=O)C=C[C@H](OC(=O)c3ccc(Cl)cc3)[C@]13O[C@@H]3C[C@H]1[C@@H]3CC[C@H]([C@H](C)[C@H]4CC(C)=C(COC(=O)c5ccc(Cl)cc5)C(=O)O4)[C@@]3(C)CC[C@@H]12 | ≥ 10000 nM | ≥ 10000 nM | ≥ 10000 nM | ≥ 10000 nM | ≥ 10000 nM |
| CC(=O)OCC1=C(C)C[C@H]([C@@H](C)[C@H]2CC[C@H]3[C@@H]4C[C@H]5O[C@]56[C@@H]5C=CC(=O)[C@]6(COC(=O)CC/C=C/CCC(=O)O5)[C@H]4CC[C@]23C)OC1=O | 965 nM | 360 nM | 245 nM | 225 nM | 205 nM |
| C=CCCC(=O)OC[C@]12C(=O)C=C[C@H](OC(=O)CCC=C)[C@]13O[C@@H]3C[C@H]1[C@@H]3CC[C@H]([C@H](C)[C@H]4CC(C)=C(COC(C)=O)C(=O)O4)[C@@]3(C)CC[C@@H]12 | 1440 nM | 865 nM | 625 nM | 580 nM | 470 nM |
| CC(=O)OCC1=C(C)C[C@H]([C@@H](C)[C@H]2CC[C@H]3[C@@H]4C[C@H]5O[C@]56[C@@H](OC(C)=O)C=C(I)C(=O)[C@]6(COC(C)=O)[C@H]4CC[C@]23C)OC1=O | 830 nM | 475 nM | 210 nM | 115 nM | 275 nM |
| CC1=C(CO)C(=O)O[C@@H]([C@@H](C)[C@H]2CC[C@H]3[C@@H]4C[C@H]5O[C@]56[C@@H](O)C=C(I)C(=O)[C@]6(CO)[C@H]4CC[C@]23C)C1 | > 10000 nM | 9100 nM | > 10000 nM | 5250 nM | 9110 nM |
| CC(=O)OCC1=C(C)C[C@H]([C@@H](C)[C@H]2CC[C@H]3[C@@H]4C[C@@H](OC(C)=O)C5=CC=CC(=O)[C@]5(COC(C)=O)[C@H]4CC[C@]23C)OC1=O | ≥ 10000 nM | ≥ 10000 nM | ≥ 10000 nM | ≥ 10000 nM | ≥ 10000 nM |
| CC(=O)OCC1=C(C)C[C@H]([C@@H](C)[C@H]2CC[C@H]3[C@@H]4C[C@@H](O)[C@@]5(Cl)CC=CC(=O)[C@]5(COC(C)=O)[C@H]4CC[C@]23C)OC1=O | 2160 nM | 3150 nM | 800 nM | 1350 nM | 1170 nM |
| CC(=O)OCC1=C(C)C[C@H]([C@@H](C)[C@H]2CC[C@H]3[C@@H]4C[C@@H](O)C5=CC=CC(=O)[C@]5(COC(C)=O)[C@H]4CC[C@]23C)OC1=O | ≥ 10000 nM | ≥ 10000 nM | ≥ 10000 nM | ≥ 10000 nM | ≥ 10000 nM |
| CC(=O)OCC1=C(C)C[C@H]([C@@H](C)[C@H]2CC[C@H]3[C@@H]4C[C@H]5O[C@]56CC=CC(=O)[C@]6(COC(C)=O)[C@H]4CC[C@]23C)OC1=O | 1220 nM | 2050 nM | 790 nM | 1100 nM | 710 nM |
| CC(=O)OCC1=C(C)C[C@H]([C@@H](C)[C@H]2CC[C@H]3[C@@H]4C[C@H]5O[C@]56[C@@H](OC(=O)N(C)C)C=CC(=O)[C@]6(COC(C)=O)[C@H]4CC[C@]23C)OC1=O | 970 nM | 510 nM | 175 nM | 86.5 nM | 205 nM |
| CC1=C(CO)C(=O)O[C@@H]([C@@H](C)[C@H]2CC[C@H]3[C@@H]4C[C@H]5O[C@]56[C@@H](OC(=O)N(C)C)C=CC(=O)[C@]6(CO)[C@H]4CC[C@]23C)C1 | 2090 nM | 1750 nM | 610 nM | 585 nM | 515 nM |
| CC1=C(COC(=O)c2ccc(Cl)cc2)C(=O)O[C@@H]([C@@H](C)[C@H]2CC[C@H]3[C@@H]4C[C@H]5O[C@]56[C@@H](OC(=O)c5ccc(Cl)cc5)C=CC(=O)[C@]6(COC(=O)c5ccc(Cl)cc5)[C@H]4CC[C@]23C)C1 | ≥ 10000 nM | ≥ 10000 nM | ≥ 10000 nM | ≥ 10000 nM | ≥ 10000 nM |
| CC1=C(COC(=O)c2ccc(Cl)cc2)C(=O)O[C@@H]([C@@H](C)[C@H]2CC[C@H]3[C@@H]4C[C@H]5O[C@]56[C@@H](OC(=O)c5ccc(Cl)cc5)C=CC(=O)[C@]6(CO)[C@H]4CC[C@]23C)C1 | ≥ 10000 nM | ≥ 10000 nM | ≥ 10000 nM | ≥ 10000 nM | ≥ 10000 nM |
| CC1=C(COC(=O)c2ccc(Cl)cc2)C(=O)O[C@@H]([C@@H](C)[C@H]2CC[C@H]3[C@@H]4C[C@H]5O[C@]56[C@@H](O)C=CC(=O)[C@]6(COC(=O)c5ccc(Cl)cc5)[C@H]4CC[C@]23C)C1 | 4640 nM | 2350 nM | 2620 nM | 1900 nM | 1110 nM |
| CC1=C(CO)C(=O)O[C@@H]([C@@H](C)[C@H]2CC[C@H]3[C@@H]4C[C@H]5O[C@]56[C@@H](OC(=O)c5ccc(Cl)cc5)C=CC(=O)[C@]6(CO)[C@H]4CC[C@]23C)C1 | 1720 nM | 2550 nM | 1400 nM | 1850 nM | 2250 nM |
| CCC(=O)OCC1=C(C)C[C@H]([C@@H](C)[C@H]2CC[C@H]3[C@@H]4C[C@H]5O[C@]56[C@@H](OC(=O)CC)C=CC(=O)[C@]6(COC(=O)CC)[C@H]4CC[C@]23C)OC1=O | 1000 nM | 615 nM | 365 nM | 130 nM | 285 nM |
| CC(=O)OCC1=C(C)C[C@H]([C@@H](C)[C@H]2CC[C@H]3[C@@H]4C[C@H]5O[C@]56[C@@H](O)C=CC(=O)[C@]6(COC(C)=O)[C@H]4CC[C@]23C)OC1=O | 515 nM | 490 nM | 205 nM | 155 nM | 230 nM |
| CC(=O)O[C@H]1C=CC(=O)[C@]2(CO)[C@H]3CC[C@]4(C)[C@@H]([C@H](C)[C@H]5CC(C)=C(CO)C(=O)O5)CC[C@H]4[C@@H]3C[C@H]3O[C@]132 | 2480 nM | 1200 nM | 890 nM | 570 nM | 1220 nM |
| CC(=O)OC[C@]12C(=O)C=C[C@H](O)[C@]13O[C@@H]3C[C@H]1[C@@H]3CC[C@H]([C@H](C)[C@H]4CC(C)=C(CO)C(=O)O4)[C@@]3(C)CC[C@@H]12 | 3060 nM | 1800 nM | 1150 nM | 780 nM | 1230 nM |
| CC(=O)OCC1=C(C)C[C@H]([C@@H](C)[C@H]2CC[C@H]3[C@@H]4C[C@H]5O[C@]56[C@@H](O)C=CC(=O)[C@]6(CO)[C@H]4CC[C@]23C)OC1=O | 1220 nM | 2300 nM | 415 nM | 1050 nM | 705 nM |
| CC1=C(CO)C(=O)O[C@@H]([C@@H](C)[C@H]2CC[C@H]3[C@@H]4C[C@H]5O[C@]56[C@@H](O)C=CC(=O)[C@]6(C)[C@H]4CC[C@]23C)C1 [WITHAFERIN A] | 1000 nM | 2700 nM | 540 nM | 780 nM | 1000 nM |
